{"source": "patent EP3064205A1", "about": "“Therapeutic use of isomeric forms of 2-(4-chlorophenyl)quinolin-4-yl)(piperidin-2-yl)methanol” (Glionova AB, priority 2015, dated 2016)", "assay_in_all_cases": "3D clonogenic assay (PDX)", "format_in_all_cases": "cell-based, human", "key": {"CXF 94": {"test_system": "CXF 94", "conditions": "CXF 94, Colorectal; for IC50: Homo sapiens", "in_short": "(§1)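 Colony counts from automated image analysis of INT-stained soft-agar cultures served as the read-out. Cells were dissociated from subcutaneous PDX tumors and layered in agar. Compound was applied 24 h later at 10 concentrations (top 50 µM) and left on the cells for 8–13 days.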"}, "CXF 1729": {"test_system": "CXF 1729", "conditions": "CXF 1729, Colorectal; for IC50: Homo sapiens", "in_short": "as §1"}, "PAXF 2059": {"test_system": "PAXF 2059", "conditions": "PAXF 2059, Pancreas; for IC50: Homo sapiens", "in_short": "as §1"}, "MEXF 274": {"test_system": "MEXF 274", "conditions": "MEXF 274, Melanoma; for IC50: Homo sapiens", "in_short": "as §1"}, "LXFA 923": {"test_system": "LXFA 923", "conditions": "LXFA 923, Lung Adeno; for IC50: Homo sapiens", "in_short": "as §1"}, "BXF 1218": {"test_system": "BXF 1218", "conditions": "BXF 1218, Bladder; for IC50: Homo sapiens", "in_short": "as §1"}, "GXA 3044": {"test_system": "GXA 3044", "conditions": "GXA 3044, Asian Gastric; for IC50: Homo sapiens", "in_short": "as §1"}, "BXF 1036": {"test_system": "BXF 1036", "conditions": "BXF 1036, Bladder; for IC50: Homo sapiens", "in_short": "as §1"}, "MEXF 622": {"test_system": "MEXF 622", "conditions": "MEXF 622, Melanoma; for IC50: Homo sapiens", "in_short": "as §1"}, "MAXF 1322": {"test_system": "MAXF 1322", "conditions": "MAXF 1322, Breast; for IC50: Homo sapiens", "in_short": "as §1"}, "PAXF 1998": {"test_system": "PAXF 1998", "conditions": "PAXF 1998, Pancreas; for IC50: Homo sapiens", "in_short": "as §1"}, "PAXF 546": {"test_system": "PAXF 546", "conditions": "PAXF 546, Pancreas; for IC50: Homo sapiens, PAXF546", "in_short": "as §1"}}, "note": "Read-outs that look alike come from different tables or passages of the source."}
{"smiles": "O[C@H](c1cc(-c2ccc(Cl)cc2)nc2ccccc12)[C@@H]1CCCCN1", "note": "[S1, (R)-(2-(4-chlorophenyl)quinolin-4-yl)((S)-piperidin-2-yl)methanol]", "values": [{"measurement": "b (bottom plateau of concentration-effect curve)", "setting": "CXF 94", "result": 8}, {"measurement": "t (top plateau of concentration-effect curve)", "setting": "CXF 94", "result": 98}, {"measurement": "IC50", "setting": "CXF 94; read-out: abs. IC50", "result": 13.3, "unit": "µM"}, {"measurement": "IC50", "setting": "CXF 94; read-out: rel. IC50", "result": 12.7, "unit": "µM"}, {"measurement": "b (bottom plateau of concentration-effect curve)", "setting": "CXF 1729", "result": 8}, {"measurement": "t (top plateau of concentration-effect curve)", "setting": "CXF 1729", "result": 104}, {"measurement": "IC50", "setting": "CXF 1729; read-out: abs. IC50", "result": 8.87, "unit": "µM"}, {"measurement": "IC50", "setting": "CXF 1729; read-out: rel. IC50", "result": 8.82, "unit": "µM"}, {"measurement": "IC50", "setting": "PAXF 2059; read-out: abs. IC50", "result": 13.8, "unit": "µM"}, {"measurement": "IC50", "setting": "PAXF 2059; read-out: rel. IC50", "result": 13, "unit": "µM"}, {"measurement": "b (bottom plateau of concentration-effect curve)", "setting": "PAXF 2059", "result": 18}, {"measurement": "t (top plateau of concentration-effect curve)", "setting": "PAXF 2059", "result": 130}, {"measurement": "IC50", "setting": "MEXF 274; read-out: abs. IC50", "result": 8.84, "unit": "µM"}, {"measurement": "IC50", "setting": "MEXF 274; read-out: rel. IC50", "result": 8.69, "unit": "µM"}, {"measurement": "b (bottom plateau of concentration-effect curve)", "setting": "MEXF 274", "result": 17}, {"measurement": "t (top plateau of concentration-effect curve)", "setting": "MEXF 274", "result": 103}, {"measurement": "IC50", "setting": "LXFA 923; read-out: abs. IC50", "result": 8.55, "unit": "µM"}, {"measurement": "IC50", "setting": "LXFA 923; read-out: rel. IC50", "result": 8.44, "unit": "µM"}, {"measurement": "b (bottom plateau of concentration-effect curve)", "setting": "LXFA 923", "result": 21}, {"measurement": "t (top plateau of concentration-effect curve)", "setting": "LXFA 923", "result": 101}, {"measurement": "b (bottom plateau of concentration-effect curve)", "setting": "BXF 1218", "result": 15}, {"measurement": "t (top plateau of concentration-effect curve)", "setting": "BXF 1218", "result": 100}, {"measurement": "IC50", "setting": "BXF 1218; read-out: abs. IC50", "result": 6.16, "unit": "µM"}, {"measurement": "IC50", "setting": "BXF 1218; read-out: rel. IC50", "result": 6.02, "unit": "µM"}, {"measurement": "b (bottom plateau of concentration-effect curve)", "setting": "GXA 3044", "result": 15}, {"measurement": "t (top plateau of concentration-effect curve)", "setting": "GXA 3044", "result": 101}, {"measurement": "IC50", "setting": "GXA 3044; read-out: abs. IC50", "result": 9.08, "unit": "µM"}, {"measurement": "IC50", "setting": "GXA 3044; read-out: rel. IC50", "result": 8.95, "unit": "µM"}, {"measurement": "b (bottom plateau of concentration-effect curve)", "setting": "BXF 1036", "result": 30}, {"measurement": "t (top plateau of concentration-effect curve)", "setting": "BXF 1036", "result": 95}, {"measurement": "IC50", "setting": "BXF 1036; read-out: abs. IC50", "result": 5.3, "unit": "µM"}, {"measurement": "IC50", "setting": "BXF 1036; read-out: rel. IC50", "result": 5, "unit": "µM"}, {"measurement": "IC50", "setting": "MEXF 622; read-out: abs. IC50", "result": 9.21, "unit": "µM"}, {"measurement": "IC50", "setting": "MEXF 622; read-out: rel. IC50", "result": 9.14, "unit": "µM"}, {"measurement": "b (bottom plateau of concentration-effect curve)", "setting": "MEXF 622", "result": 21}, {"measurement": "t (top plateau of concentration-effect curve)", "setting": "MEXF 622", "result": 86}, {"measurement": "IC50", "setting": "MAXF 1322; read-out: abs. IC50", "result": 4.77, "unit": "µM"}, {"measurement": "IC50", "setting": "MAXF 1322; read-out: rel. IC50", "result": 3.82, "unit": "µM"}, {"measurement": "b (bottom plateau of concentration-effect curve)", "setting": "MAXF 1322", "result": 21}, {"measurement": "t (top plateau of concentration-effect curve)", "setting": "MAXF 1322", "result": 93}, {"measurement": "IC50", "setting": "PAXF 1998; read-out: abs. IC50", "result": 8.89, "unit": "µM"}, {"measurement": "IC50", "setting": "PAXF 1998; read-out: rel. IC50", "result": 8.54, "unit": "µM"}, {"measurement": "b (bottom plateau of concentration-effect curve)", "setting": "PAXF 1998", "result": 38}, {"measurement": "t (top plateau of concentration-effect curve)", "setting": "PAXF 1998", "result": 104}, {"measurement": "IC50", "setting": "PAXF 546; read-out: abs. IC50", "result": 9.22, "unit": "µM"}, {"measurement": "IC50", "setting": "PAXF 546; read-out: rel. IC50", "result": 9.07, "unit": "µM"}, {"measurement": "b (bottom plateau of concentration-effect curve)", "setting": "PAXF 546", "result": 25}, {"measurement": "t (top plateau of concentration-effect curve)", "setting": "PAXF 546", "result": 96}]}
